Consider 14 molecules from BindingDB's records for doi:10.1016/s0960-894x(99)00301-7 (Nankai University, 1999).

Some results are limits rather than exact numbers.

The target of the test is T1, Acetolactate synthase, chloroplastic (Arabidopsis thaliana, UniProt P17597).
T1 sequence (P17597 whole entry): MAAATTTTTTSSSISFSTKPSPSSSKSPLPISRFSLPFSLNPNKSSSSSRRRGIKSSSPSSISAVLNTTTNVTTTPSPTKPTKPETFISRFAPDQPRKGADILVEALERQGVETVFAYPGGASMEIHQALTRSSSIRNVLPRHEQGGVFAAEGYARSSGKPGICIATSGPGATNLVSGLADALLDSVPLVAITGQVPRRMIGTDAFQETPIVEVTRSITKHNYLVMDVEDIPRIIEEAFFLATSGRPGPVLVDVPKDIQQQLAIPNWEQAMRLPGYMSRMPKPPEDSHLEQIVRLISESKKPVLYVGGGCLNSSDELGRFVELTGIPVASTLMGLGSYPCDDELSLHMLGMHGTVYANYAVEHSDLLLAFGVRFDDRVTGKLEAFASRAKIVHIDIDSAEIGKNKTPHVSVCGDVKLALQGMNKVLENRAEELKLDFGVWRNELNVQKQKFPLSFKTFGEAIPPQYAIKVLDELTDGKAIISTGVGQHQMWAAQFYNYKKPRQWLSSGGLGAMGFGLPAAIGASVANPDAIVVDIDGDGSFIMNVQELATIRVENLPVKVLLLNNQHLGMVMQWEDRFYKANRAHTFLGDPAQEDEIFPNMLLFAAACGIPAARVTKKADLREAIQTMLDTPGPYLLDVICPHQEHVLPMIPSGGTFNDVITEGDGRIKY
Briefly: ChEBML_27494. From the text:
Inhibitory activity against Acetolactate synthase (ALS) enzyme by using the rape-root growth method

For orientation: IC50 means the concentration that inhibits the measured activity by half. For `O=C(OCn1ccc(=O)[nH]c1=O)c1ccc(I)cc1`, the IC50 is over 269 µM.

`COc1ccc(C(=O)OCn2ccc(=O)[nH]c2=O)cc1` showed an IC50 of over 362 µM.

Molecule `O=C(OCn1ccc(=O)[nH]c1=O)c1ccc(Cl)cc1` yielded an IC50 of 182 µM.

Molecule `COc1cc(Cl)nc(NS(=O)(=O)c2ccc(F)cc2)n1` [N-(4-Chloro-6-methoxy-pyrimidin-2-yl)-4-fluoro-benzenesulfonamide] showed an IC50 of 111 µM.

For `O=C(OCn1ccc(=O)[nH]c1=O)c1ccc([N+](=O)[O-])cc1`, the IC50 was over 344 µM.

As for `O=C(OCn1ccc(=O)[nH]c1=O)c1c(Cl)cc(C(F)(F)F)cc1Cl`, the IC50 was over 261 µM.

In turn, `O=C(OCn1ccc(=O)[nH]c1=O)c1ccc(Br)cc1` registered an IC50 of 169 µM.

In the case of `Cc1cnc(NS(=O)(=O)c2cc(Cl)ccc2Cl)s1` [2,5-Dichloro-N-(5-methyl-thiazol-2-yl)-benzenesulfonamide], the IC50 is over 309 µM.

Regarding `Cc1ccc(NS(=O)(=O)c2ccc(F)cc2)nc1` [4-Fluoro-N-(5-methyl-pyridin-2-yl)-benzenesulfonamide], the IC50 is 152 µM.

Molecule `O=C(OCn1ccc(=O)[nH]c1=O)c1ccc(F)cc1` had an IC50 of 212 µM.

The molecule `Cc1ccnc(NS(=O)(=O)c2ccccc2[N+](=O)[O-])n1` [N-(4-Methyl-pyrimidin-2-yl)-2-nitro-benzenesulfonamide] showed a 50% inhibitory concentration (IC50) of 287 µM.

Regarding `COc1ccccc1C(=O)OCn1ccc(=O)[nH]c1=O`, the IC50 was over 362 µM.

In turn, `Cc1cccc(C(=O)OCn2ccc(=O)[nH]c2=O)c1` gave an IC50 of 62 µM.

Take `O=C(OCn1ccc(=O)[nH]c1=O)c1ccccc1`: the IC50 is 208 µM.
